Measurements published in PubChem BioAssay (NCI).
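Five concentrations, 48 hours, 96-well plates. TGI is the concentration that stops growth completely.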

Key:
Assay in all cases: inhibition of tumour cell growth, NCI panel, 48 h
NCI-H522 lung = tested on: NCI-H522 lung
SNB-75 CNS = tested on: SNB-75 CNS
RXF 393 renal = tested on: RXF 393 renal
SK-OV-3 ovarian = tested on: SK-OV-3 ovarian
K-562 leukemia = tested on: K-562 leukemia
TK-10 renal = tested on: TK-10 renal
NCI-H460 lung = tested on: NCI-H460 lung
DU-145 prostate = tested on: DU-145 prostate
SF-539 CNS = tested on: SF-539 CNS
UACC-257 melanoma = tested on: UACC-257 melanoma
IGROV1 ovarian = tested on: IGROV1 ovarian
OVCAR-3 ovarian = tested on: OVCAR-3 ovarian
SR leukemia = tested on: SR leukemia
COLO 205 colon = tested on: COLO 205 colon
EKVX NSCLC = tested on: EKVX NSCLC
ACHN renal = tested on: ACHN renal
CCRF-CEM leukemia = tested on: CCRF-CEM leukemia
SF-268 CNS = tested on: SF-268 CNS
MDA-N = tested on: MDA-N
RPMI-8226 leukemia = tested on: RPMI-8226 leukemia

COC(=O)[C@@H]1COC(C(C)(C)C)N1C(=O)C(c1ccccc1)c1ccccc1 (some centres not stated)
TGI (NCI-H522 lung): > 100 µM | TGI (SNB-75 CNS): > 100 µM | TGI (RXF 393 renal): 38.1 µM | TGI (SK-OV-3 ovarian): 88.4 µM | TGI (K-562 leukemia): 70.4 µM | TGI (TK-10 renal): > 100 µM | TGI (NCI-H460 lung): > 100 µM | TGI (DU-145 prostate): > 100 µM | TGI (SF-539 CNS): > 100 µM | TGI (UACC-257 melanoma): > 100 µM | TGI (IGROV1 ovarian): > 100 µM | TGI (OVCAR-3 ovarian): > 100 µM | TGI (SR leukemia): 33.9 µM | TGI (COLO 205 colon): > 100 µM | TGI (EKVX NSCLC): > 100 µM | TGI (ACHN renal): > 100 µM | TGI (CCRF-CEM leukemia): 84.7 µM | TGI (SF-268 CNS): > 100 µM | TGI (MDA-N): 69.2 µM

O=C(O)c1nc2ccccc2nc1NCc1ccc(F)cc1
TGI (NCI-H522 lung): > 100 µM | TGI (SNB-75 CNS): > 100 µM | TGI (RXF 393 renal): > 100 µM | TGI (K-562 leukemia): > 100 µM | TGI (TK-10 renal): > 100 µM | TGI (RPMI-8226 leukemia): > 100 µM | TGI (NCI-H460 lung): > 100 µM | TGI (DU-145 prostate): > 100 µM | TGI (SF-539 CNS): > 100 µM | TGI (UACC-257 melanoma): > 100 µM | TGI (IGROV1 ovarian): > 100 µM | TGI (OVCAR-3 ovarian): > 100 µM | TGI (SR leukemia): > 100 µM | TGI (COLO 205 colon): 93.5 µM | TGI (EKVX NSCLC): > 100 µM | TGI (CCRF-CEM leukemia): > 100 µM | TGI (SF-268 CNS): > 100 µM | TGI (MDA-N): > 100 µM

COc1ccc(C(=C2C(=O)N(c3ccccc3)C(=O)C2=C(C)C)c2ccc(OC)cc2)cc1
TGI (NCI-H522 lung): 15.7 µM | TGI (SNB-75 CNS): > 43.6 µM | TGI (RXF 393 renal): 5.9 µM | TGI (SK-OV-3 ovarian): > 56.1 µM | TGI (K-562 leukemia): > 100 µM | TGI (TK-10 renal): > 47.5 µM | TGI (RPMI-8226 leukemia): > 43.7 µM | TGI (NCI-H460 lung): > 100 µM | TGI (DU-145 prostate): > 58 µM | TGI (SF-539 CNS): > 24.2 µM | TGI (UACC-257 melanoma): > 47.5 µM | TGI (IGROV1 ovarian): > 36.6 µM | TGI (OVCAR-3 ovarian): > 100 µM | TGI (SR leukemia): > 100 µM | TGI (COLO 205 colon): > 33.3 µM | TGI (EKVX NSCLC): > 24.4 µM | TGI (ACHN renal): > 31.7 µM | TGI (SF-268 CNS): > 34.3 µM | TGI (MDA-N): 4.11 µM

CCCCc1ccc(Nc2nc(Cl)c3ncn(C4CC(Oc5ccc(C)cc5)C(COc5ccc(C)cc5)O4)c3n2)cc1 (configuration not stated)
TGI (NCI-H522 lung): > 100 µM | TGI (SNB-75 CNS): > 100 µM | TGI (RXF 393 renal): > 100 µM | TGI (SK-OV-3 ovarian): > 100 µM | TGI (K-562 leukemia): > 100 µM | TGI (TK-10 renal): > 100 µM | TGI (RPMI-8226 leukemia): > 100 µM | TGI (DU-145 prostate): > 100 µM | TGI (SF-539 CNS): > 100 µM | TGI (UACC-257 melanoma): > 100 µM | TGI (IGROV1 ovarian): > 100 µM | TGI (OVCAR-3 ovarian): > 100 µM | TGI (SR leukemia): > 100 µM | TGI (COLO 205 colon): > 100 µM | TGI (EKVX NSCLC): > 100 µM | TGI (ACHN renal): > 100 µM | TGI (CCRF-CEM leukemia): > 100 µM | TGI (SF-268 CNS): > 100 µM | TGI (MDA-N): > 100 µM

Cc1cccc(C)c1N1C(=O)C2c3[nH]c4ccccc4c3C3CCC(C(C)(C)C)CC3C2C1=O (configuration not stated)
TGI (RXF 393 renal): 26.3 µM | TGI (SK-OV-3 ovarian): > 100 µM | TGI (K-562 leukemia): 32.7 µM | TGI (TK-10 renal): 33.8 µM | TGI (RPMI-8226 leukemia): > 100 µM | TGI (DU-145 prostate): 22.5 µM | TGI (SF-539 CNS): 37.5 µM | TGI (UACC-257 melanoma): 37.5 µM | TGI (IGROV1 ovarian): 42.6 µM | TGI (OVCAR-3 ovarian): 30.3 µM | TGI (SR leukemia): > 100 µM | TGI (COLO 205 colon): 24 µM | TGI (EKVX NSCLC): 23.4 µM | TGI (ACHN renal): 33.7 µM | TGI (CCRF-CEM leukemia): 45.1 µM | TGI (SF-268 CNS): 39 µM | TGI (MDA-N): 24.4 µM

CNc1ncnc2c1cnn2CCCCO
TGI (NCI-H522 lung): > 100 µM | TGI (RXF 393 renal): > 100 µM | TGI (SK-OV-3 ovarian): > 100 µM | TGI (K-562 leukemia): > 100 µM | TGI (TK-10 renal): > 100 µM | TGI (RPMI-8226 leukemia): > 100 µM | TGI (NCI-H460 lung): > 100 µM | TGI (DU-145 prostate): > 100 µM | TGI (SF-539 CNS): > 100 µM | TGI (UACC-257 melanoma): > 100 µM | TGI (IGROV1 ovarian): > 100 µM | TGI (OVCAR-3 ovarian): > 100 µM | TGI (SR leukemia): > 100 µM | TGI (COLO 205 colon): > 100 µM | TGI (EKVX NSCLC): > 100 µM | TGI (ACHN renal): > 100 µM | TGI (CCRF-CEM leukemia): > 100 µM | TGI (SF-268 CNS): > 100 µM | TGI (MDA-N): > 100 µM

O=C(NCCCNCCCCNCCCNC(=O)c1cc(-c2ccccc2)nc2ccccc12)c1cc(-c2ccccc2)nc2ccccc12
TGI (NCI-H522 lung): 5.64 µM | TGI (RXF 393 renal): 74.2 µM | TGI (SK-OV-3 ovarian): 4.85 µM | TGI (K-562 leukemia): 3.83 µM | TGI (TK-10 renal): 23.8 µM | TGI (NCI-H460 lung): 19.7 µM | TGI (DU-145 prostate): > 59.1 µM | TGI (SF-539 CNS): 3.62 µM | TGI (UACC-257 melanoma): 13.3 µM | TGI (IGROV1 ovarian): 5.35 µM | TGI (OVCAR-3 ovarian): 15.9 µM | TGI (SR leukemia): 4.95 µM | TGI (EKVX NSCLC): 18 µM | TGI (ACHN renal): 42.3 µM | TGI (CCRF-CEM leukemia): 3.63 µM | TGI (MDA-N): 3.17 µM
